Laboratory results published in publication PMC11931052, “Efficacy of dispirotripiperazine PDSTP in a golden Syrian hamster model of SARS-CoV-2 infection” (Frontiers in Microbiology, 2025).

Legend:
[1] = system: SARS-CoV-2 clinical isolate 35245; experiment: Plaque reduction assay, SARS-CoV-2 35245; type: cell-based; details: Severe acute respiratory syndrome coronavirus 2, read-out: Antiviral activity IC50 against coronaviruses, SARS-CoV-2 clinical isolate 35245, PR
[2] = Cytotoxicity (MTT test) in Vero E6 cell line; type: cell-based, African Green Monkey (Cercopithecus aethiops); details: African green monkey, mean ± SD, three independent experiments
Protocol: (§1) The microtetrazolium test (MTT test) was used to study the cytotoxicity of the compounds. Vero cells were seeded in 96-well plates at an initial density of 3×10^5 cells/mL, in Gibco Dulbecco’s Modified Eagle Medium supplemented with L-glutamine and 25 mg/L kanamycin, and 10 % fetal bovine serum (FBS) (DMEM, Thermo Fisher Scientific, Waltham, MA USA). Cell cultures were then incubated at 37 °C in a 5 % CO2 atmosphere, in the absence or presence of serial dilutions of test compounds. The test medium used for the cytotoxic assay as well as for the antiviral assay contained 1 % of the appropriate serum. Cell viability was determined after 72 h at 37 °C by the MTT method as previously reported. The cell viability was expressed as a percentage of the control. The 50% cytotoxic concentration (CC50) of each compound was defined as the concentration of the compound that reduced the absorbance (OD570) of the treated cells to 50% when compared with that of untreated cells. CC50 mean values were calculated from at least three independent experiments.

[3] = Cytotoxicity (MTT test) in Vero-76 cells; type: cell-based, African Green Monkey (Cercopithecus aethiops); details: African green monkey
Protocol: as §1

HCoV-229E = experiment: Plaque reduction assay, HCoV-229E in Vero E6 cells; type: cell-based; details: Human coronavirus 229E, Vero C1008, Vero E6, mean ± SD, read-out: Antiviral activity IC50 against coronaviruses, HCoV-229E, PR
Protocol: (§2) Vero E6 cells were incubated in the presence of PDSTP and reference compounds (100.0, 20.0, 4.0, and 0.8 μM concentrations) for 1 h at 37°C in a 5% CO2 and then infected for 1 h with 250 μL of the corresponding virus (SARS-CoV-2 PV10734 or HCoV-229E) dilutions to obtain 50–100 PFU/well. The plates were then incubated for 1 h at 37°C in a 5% CO2 atmosphere. Following the removal of the unabsorbed virus, 400 μL of the medium (D-MEM with L-glutamine, 4,500 mg/L D-glucose, and 1% inactivated FBS) containing 0.75% methyl-cellulose (M0512, viscosity 4,000 cP, Sigma-Aldrich, United States) and the serial dilutions of the compounds were added and incubated for 4 (SARS-CoV-2) or 2 (HCoV-229E) days at 37°C in a 5% CO2 atmosphere. Subsequently, the cells were fixed and stained with a 0.2% crystal violet solution (V5265, Sigma-Aldrich, United States) and then the number of plaques was calculated. The degree of cell growth/viability and viral multiplication at each drug concentration tested was expressed as a percentage of the untreated control. Concentrations resulting in 50% inhibition (CC50 or EC50) were determined using linear regression analysis.

[4] = system: SARS-CoV-2 clinical isolate 35245; experiment: Microtetrazolium (MTT) test, SARS-CoV-2 35245; type: cell-based; details: Severe acute respiratory syndrome coronavirus 2, read-out: Antiviral activity IC50 against coronaviruses, SARS-CoV-2 clinical isolate 35245, MTT
Protocol: The compound’s activity against OC43 and SARS-CoV-235245 was based on the inhibition of virus-induced cytopathogenicity in acutely infected Vero-76 cells (MOI 0.01). Briefly, Vero-76 cells were seeded in 96-well plates at a density of 3 × 10^4 cells/well and incubated in a growth medium in a 5% CO2 at 37°C overnight. Cell monolayers were then infected with 50 μL of the appropriate viral dilution in maintenance medium [D-MEM and MEM-Earl (Gibco, Thermo Fisher Scientific, MA United States) with L-glutamine (Gibco), 1 mM sodium pyruvate (Gibco), and 0.025 g/L kanamycin (Gibco), supplemented with 0.5% inactivated FBS (Harlan Sera-Lab, Loughborough, United Kingdom), respectively] to give an MOI of 0.01, without or with serial dilutions of test samples. After 6 (HCoV-OC43) and 4/5 (SARS-CoV-2) days of incubation at 37°C, the extent of cell viability was quantified using a tetrazolium-based colorimetric method, in which the reduction of 3-(4,5-dimethylthiazol-2-yl)-2,5-diphenyl-tetrazolium bromide (MTT) by mitochondrial dehydrogenases to a soluble colored formazan was measured using a spectrophotometer (Infinity 200, Tecan Austria GmbH, Austria) at 570 nm, as previously reported ([Sanna et al., 2020]).

[5] = system: SARS-CoV-2 clinical isolate VR PV10734; experiment: Plaque reduction assay, SARS-CoV-2 VR PV10734 in Vero E6 cells; type: cell-based; details: Severe acute respiratory syndrome coronavirus 2, Vero C1008, mean ± SD, read-out: Antiviral activity IC50 against coronaviruses, SARS-CoV-2 clinical isolate VR PV10734, PR
Protocol: as §2

HCoV-OC43 = experiment: MTT test, HCoV-OC43 in Vero-76 cells; type: cell-based; details: Betacoronavirus 1, OC43, Vero 76, read-out: IC50 (HCoV-OC43)
SARS-COV-2 PV10734 = experiment: Time-of-addition and cell pre-treatment assay in Vero cells; type: cell-based

CCN(CCO)CCCC(C)Nc1ccnc2cc(Cl)ccc12 (centres unmarked) [HDQ, Hydroxychloroquine, reference compound]
IC50 [1]: 2.3 ± 0.7 µM
CC50 at 72 h ([2]; Vero E6 cells): 40 ± 5 µM
CC50 at 72 h ([3]; Vero-76 cells): 40 ± 5 µM
IC50 (HCoV-229E): 1.6 ± 0.5 µM
IC50 [4]: 11 ± 2.9 µM
IC50 [5]: 2.4 ± 0.7 µM
IC50 (HCoV-OC43): 9.8 ± 1.7 µM

CCC(CC)COC(=O)[C@H](C)N[P@](=O)(OC[C@H]1O[C@@](C#N)(c2ccc3c(N)ncnn23)[C@H](O)[C@@H]1O)Oc1ccccc1 [RMD, Remdesivir]
CC50 at 72 h [2]: > 100 µM
CC50 at 72 h [3]: > 100 µM
IC50 (HCoV-229E): 6 ± 2 µM
Antiviral activity after the SARS-CoV-2 entry process (SARS-COV-2 PV10734): exerted its antiviral activity
Antiviral activity, pre-treatment and early stages of infection (SARS-COV-2 PV10734): did not affect the early events of the viral life cycle
IC50 [5]: 1.6 ± 0.3 µM

heparin
Inhibitory effect at the later stages of infection (SARS-COV-2 PV10734; addition at 4 and 6 hpi): barely noticeable
